Source: PubChem BioAssay AID1918996 (Molecular Pharmacology Branch, DTP, NCI, 2023)
One block for each molecule: values may come before it.

System: 349418-098-R-PDC complex spheroid growth
Assay: Anticancer human tumor 349418-098-R-PDC patient-derived lung adenocarcinoma cell line growth inhibition [AhR]
Details: for IC50: curve of first compound; for viability, T/C: stronger effect = lower value
Procedure, shortened: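 Agents were dosed in half-log steps down from roughly clinical Cmax, or from 10 microM where Cmax was unknown, alone and with AhR antagonists. Read-out: percent test/control growth of tumor spheroids containing HUVEC and MSC stromal cells.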

[1] = second compound 0.1 µM, first compound 0.00316 µM
[2] = second compound 0.1 µM, first compound 0.01 µM
[3] = second compound 0.1 µM, first compound 0.0316 µM
[4] = second compound 0.1 µM, first compound 0.1 µM
[5] = second compound 0.316 µM, first compound 0.00316 µM
[6] = second compound 0.316 µM, first compound 0.01 µM
[7] = second compound 0.316 µM, first compound 0.0316 µM
[8] = second compound 0.316 µM, first compound 0.1 µM
[9] = second compound 1 µM, first compound 0.00316 µM
[10] = second compound 1 µM, first compound 0.01 µM
[11] = second compound 1 µM, first compound 0.0316 µM
[12] = second compound 1 µM, first compound 0.1 µM
[13] = second compound 3.16 µM, first compound 0.00316 µM
[14] = second compound 3.16 µM, first compound 0.01 µM
[15] = second compound 3.16 µM, first compound 0.0316 µM
[16] = second compound 3.16 µM, first compound 0.1 µM
[17] = second compound 10 µM, first compound 0.00316 µM
[18] = second compound 10 µM, first compound 0.01 µM
[19] = second compound 10 µM, first compound 0.0316 µM
[20] = second compound 10 µM, first compound 0.1 µM
[21] = second compound 0.1 µM, first compound 0.316 µM
[22] = second compound 0.1 µM, first compound 1 µM
[23] = second compound 0.1 µM, first compound 3.16 µM
[24] = second compound 0.1 µM, first compound 10 µM
[25] = second compound 0.316 µM, first compound 0.316 µM
[26] = second compound 0.316 µM, first compound 1 µM
[27] = second compound 0.316 µM, first compound 3.16 µM
[28] = second compound 0.316 µM, first compound 10 µM
[29] = second compound 1 µM, first compound 0.316 µM
[30] = second compound 1 µM, first compound 1 µM
[31] = second compound 1 µM, first compound 3.16 µM
[32] = second compound 1 µM, first compound 10 µM
[33] = second compound 3.16 µM, first compound 0.316 µM
[34] = second compound 3.16 µM, first compound 1 µM
[35] = second compound 3.16 µM, first compound 3.16 µM
[36] = second compound 3.16 µM, first compound 10 µM
[37] = second compound 10 µM, first compound 0.316 µM
[38] = second compound 10 µM, first compound 1 µM
[39] = second compound 10 µM, first compound 3.16 µM
[40] = second compound 10 µM, first compound 10 µM
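Further: spheroids exposed to agents for seven days before luminescence viability read.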
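Wherever viability, T/C is given: spheroids also contain HUVEC endothelial cells and human MSC stroma.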

Compound: CCc1c2c(nc3ccc(O)cc13)-c1cc3c(c(=O)n1C2)COC(=O)[C@]3(O)CC + Cc1ccccc1N=Nc1ccc(NC(=O)c2ccnn2C)c(C)c1
IC50 (second compound 0.1 µM): 3.8 nM
IC50 (second compound 0.316 µM): < 0.949 nM
IC50 (second compound 1 µM): < 0.949 nM
IC50 (second compound 3.16 µM): < 0.949 nM
IC50 (second compound 10 µM): < 0.949 nM
viability, T/C (second compound 0.1 µM, first compound 0.000949 µM): 75.5%
viability, T/C (second compound 0.1 µM, first compound 0.003 µM): 57.2%
viability, T/C (second compound 0.1 µM, first compound 0.00949 µM): 22.3%
viability, T/C (second compound 0.1 µM, first compound 0.03 µM): 12.3%
viability, T/C (second compound 0.1 µM, first compound 0.0949 µM): 8.18%
viability, T/C (second compound 0.1 µM, first compound 0.3 µM): 7.18%
viability, T/C (second compound 0.316 µM, first compound 0.000949 µM): 44.2%
viability, T/C (second compound 0.316 µM, first compound 0.003 µM): 32.8%
viability, T/C (second compound 0.316 µM, first compound 0.00949 µM): 21%
viability, T/C (second compound 0.316 µM, first compound 0.03 µM): 9.78%
viability, T/C (second compound 0.316 µM, first compound 0.0949 µM): 7.84%
viability, T/C (second compound 0.316 µM, first compound 0.3 µM): 5.78%
viability, T/C (second compound 1 µM, first compound 0.000949 µM): 29.9%
viability, T/C (second compound 1 µM, first compound 0.003 µM): 27.3%
viability, T/C (second compound 1 µM, first compound 0.00949 µM): 19.7%
viability, T/C (second compound 1 µM, first compound 0.03 µM): 10.3%
viability, T/C (second compound 1 µM, first compound 0.0949 µM): 7.94%
viability, T/C (second compound 1 µM, first compound 0.3 µM): 6.46%
viability, T/C (second compound 3.16 µM, first compound 0.000949 µM): 34.6%
viability, T/C (second compound 3.16 µM, first compound 0.003 µM): 33.5%
viability, T/C (second compound 3.16 µM, first compound 0.00949 µM): 15.8%
viability, T/C (second compound 3.16 µM, first compound 0.03 µM): 10%
viability, T/C (second compound 3.16 µM, first compound 0.0949 µM): 7.13%
viability, T/C (second compound 3.16 µM, first compound 0.3 µM): 6.47%
viability, T/C (second compound 10 µM, first compound 0.000949 µM): 37.7%
viability, T/C (second compound 10 µM, first compound 0.003 µM): 27.6%
viability, T/C (second compound 10 µM, first compound 0.00949 µM): 15.2%
viability, T/C (second compound 10 µM, first compound 0.03 µM): 10.4%
viability, T/C (second compound 10 µM, first compound 0.0949 µM): 7.83%
viability, T/C (second compound 10 µM, first compound 0.3 µM): 6.4%

Compound: Nc1ccn(C2OC(CO)C(O)C2(F)F)c(=O)n1 (stereo not given) + Cc1ccccc1N=Nc1ccc(NC(=O)c2ccnn2C)c(C)c1
IC50 (second compound 0.1 µM): < 31.6 nM
IC50 (second compound 0.316 µM): < 31.6 nM
IC50 (second compound 1 µM): < 31.6 nM
IC50 (second compound 3.16 µM): < 31.6 nM
IC50 (second compound 10 µM): < 31.6 nM
viability, T/C [3]: 15.1%
viability, T/C [4]: 14.6%
viability, T/C [21]: 13.6%
viability, T/C [22]: 12.1%
viability, T/C [23]: 11.3%
viability, T/C [24]: 8.74%
viability, T/C [7]: 15.9%
viability, T/C [8]: 13.5%
viability, T/C [25]: 14.6%
viability, T/C [26]: 13.1%
viability, T/C [27]: 11.2%
viability, T/C [28]: 9.73%
viability, T/C [11]: 15.7%
viability, T/C [12]: 14.8%
viability, T/C [29]: 15.3%
viability, T/C [30]: 11.7%
viability, T/C [31]: 14.3%
viability, T/C [32]: 11.4%
viability, T/C [15]: 14.9%
viability, T/C [16]: 16.4%
viability, T/C [33]: 13.1%
viability, T/C [34]: 12.7%
viability, T/C [35]: 13%
viability, T/C [36]: 10.1%
viability, T/C [19]: 17.9%
viability, T/C [20]: 17.4%
viability, T/C [37]: 16.7%
viability, T/C [38]: 14.1%
viability, T/C [39]: 13.4%
viability, T/C [40]: 12.2%

Compound: Nc1ncn(C2CC(O)C(CO)O2)c(=O)n1 (stereo not given) + Cc1ccccc1N=Nc1ccc(NC(=O)c2ccnn2C)c(C)c1
IC50 (second compound 0.1 µM): 59 nM
IC50 (second compound 0.316 µM): 66.1 nM
IC50 (second compound 1 µM): 107 nM
IC50 (second compound 3.16 µM): 68 nM
IC50 (second compound 10 µM): 50.5 nM
viability, T/C [1]: 97.8%
viability, T/C [2]: 103%
viability, T/C [3]: 66.1%
viability, T/C [4]: 39.9%
viability, T/C [21]: 39.1%
viability, T/C [22]: 30%
viability, T/C [5]: 77.8%
viability, T/C [6]: 111%
viability, T/C [7]: 73.1%
viability, T/C [8]: 38.8%
viability, T/C [25]: 37.7%
viability, T/C [26]: 34.5%
viability, T/C [9]: 79.6%
viability, T/C [10]: 99.2%
viability, T/C [11]: 69.9%
viability, T/C [12]: 51.8%
viability, T/C [29]: 44%
viability, T/C [30]: 34%
viability, T/C [13]: 91.1%
viability, T/C [14]: 74.4%
viability, T/C [15]: 61%
viability, T/C [16]: 42.2%
viability, T/C [33]: 41.3%
viability, T/C [34]: 34%
viability, T/C [17]: 54.7%
viability, T/C [18]: 61.4%
viability, T/C [19]: 53.9%
viability, T/C [20]: 42.8%
viability, T/C [37]: 37.2%
viability, T/C [38]: 29.5%

The next lines start with results.

IC50 (second compound 0.1 µM): 16.5 nM
IC50 (second compound 0.316 µM): 11.3 nM
IC50 (second compound 1 µM): 13.4 nM
IC50 (second compound 3.16 µM): 8.38 nM
IC50 (second compound 10 µM): 6.22 nM
Compound: CC[C@@]1(O)C(=O)OCc2c1cc1n(c2=O)Cc2cc3c(CN(C)C)c(O)ccc3nc2-1 + Cc1ccccc1N=Nc1ccc(NC(=O)c2ccnn2C)c(C)c1
viability, T/C (second compound 0.1 µM, first compound 0.000316 µM): 116%
viability, T/C (second compound 0.1 µM, first compound 0.001 µM): 101%
viability, T/C [1]: 112%
viability, T/C [2]: 65.9%
viability, T/C [3]: 29.3%
viability, T/C [4]: 13%
viability, T/C (second compound 0.316 µM, first compound 0.000316 µM): 95%
viability, T/C (second compound 0.316 µM, first compound 0.001 µM): 104%
viability, T/C [5]: 98.5%
viability, T/C [6]: 52.8%
viability, T/C [7]: 25.5%
viability, T/C [8]: 17%
viability, T/C (second compound 1 µM, first compound 0.000316 µM): 130%
viability, T/C (second compound 1 µM, first compound 0.001 µM): 76.9%
viability, T/C [9]: 98%
viability, T/C [10]: 57.3%
viability, T/C [11]: 22.5%
viability, T/C [12]: 17.2%
viability, T/C (second compound 3.16 µM, first compound 0.000316 µM): 64.5%
viability, T/C (second compound 3.16 µM, first compound 0.001 µM): 63.3%
viability, T/C [13]: 79.1%
viability, T/C [14]: 46.5%
viability, T/C [15]: 19.1%
viability, T/C [16]: 15.4%
viability, T/C (second compound 10 µM, first compound 0.000316 µM): 66.8%
viability, T/C (second compound 10 µM, first compound 0.001 µM): 65.1%
viability, T/C [17]: 68.7%
viability, T/C [18]: 38.2%
viability, T/C [19]: 22.2%
viability, T/C [20]: 17.5%

IC50 (second compound 0.1 µM): 298 nM
IC50 (second compound 0.316 µM): 243 nM
IC50 (second compound 1 µM): 219 nM
IC50 (second compound 3.16 µM): 149 nM
IC50 (second compound 10 µM): < 31.6 nM
Compound: COc1cc(C2c3cc4c(cc3C(OC3OC5COC(C)OC5C(O)C3O)C3COC(=O)C23)OCO4)cc(OC)c1O (stereo not given) + Cc1ccccc1N=Nc1ccc(NC(=O)c2ccnn2C)c(C)c1
viability, T/C [3]: 89.6%
viability, T/C [4]: 98.8%
viability, T/C [21]: 47.5%
viability, T/C [22]: 20.2%
viability, T/C [23]: 15.3%
viability, T/C [24]: 13.3%
viability, T/C [7]: 103%
viability, T/C [8]: 71.3%
viability, T/C [25]: 47.2%
viability, T/C [26]: 19.9%
viability, T/C [27]: 14.6%
viability, T/C [28]: 13.7%
viability, T/C [11]: 90.4%
viability, T/C [12]: 76.6%
viability, T/C [29]: 36.5%
viability, T/C [30]: 23.9%
viability, T/C [31]: 16.6%
viability, T/C [32]: 14.6%
viability, T/C [15]: 70.1%
viability, T/C [16]: 56.9%
viability, T/C [33]: 36.6%
viability, T/C [34]: 19.1%
viability, T/C [35]: 16.3%
viability, T/C [36]: 16%
viability, T/C [19]: 46.4%
viability, T/C [20]: 44.6%
viability, T/C [37]: 30.5%
viability, T/C [38]: 22.4%
viability, T/C [39]: 17.5%
viability, T/C [40]: 15.9%
